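Assay format: 96-well plates, 48-hour exposure. The concentration for full growth arrest is given as TGI.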
Columns and labels:
Assay in all cases: NCI tumour cell line growth inhibition, 48 h
HT29 colon = system: HT29 colon
HCT-15 colon = system: HCT-15 colon
CCRF-CEM leukemia = system: CCRF-CEM leukemia
SNB-75 CNS = system: SNB-75 CNS
RXF 393 renal = system: RXF 393 renal
786-0 renal = system: 786-0 renal
OVCAR-8 ovarian = system: OVCAR-8 ovarian
RPMI-8226 leukemia = system: RPMI-8226 leukemia
SK-MEL-2 melanoma = system: SK-MEL-2 melanoma
A549 NSCLC = system: A549 NSCLC
OVCAR-5 ovarian = system: OVCAR-5 ovarian

Row | Structure (SMILES) | TGI (HT29 colon) | TGI (HCT-15 colon) | TGI (CCRF-CEM leukemia) | TGI (SNB-75 CNS) | TGI (RXF 393 renal) | TGI (786-0 renal) | TGI (OVCAR-8 ovarian) | TGI (RPMI-8226 leukemia) | TGI (SK-MEL-2 melanoma) | TGI (A549 NSCLC) | TGI (OVCAR-5 ovarian)
1 | O=C(O)c1ccc([C@@H]2C(=O)N(O)[C@@H]3C=CC[C@@H]32)cc1 | > 100 µM | > 100 µM | > 100 µM | > 100 µM | > 100 µM | > 100 µM | > 100 µM | > 100 µM | > 100 µM | > 100 µM | 
2 | CN1CC2=C(NC(=S)NC2c2ccccc2Cl)/C(=C/c2ccccc2Cl)C1 (stereo unspecified) | > 100 µM | > 100 µM | > 100 µM | 23.8 µM | > 100 µM | > 100 µM | > 100 µM |  | > 100 µM | > 100 µM | > 100 µM
3 | COc1cc(C2OC[C@@H]3C(=O)OC[C@H]23)cc(O)c1OC (stereo partly specified) | > 100 µM | > 100 µM | > 100 µM | > 100 µM | > 100 µM | > 100 µM | > 100 µM | > 100 µM | > 100 µM | > 100 µM | > 100 µM
4 | CC(=O)NNc1nc(C)c(C(=O)/C=C/c2ccc(Cl)c(Cl)c2)s1 | > 100 µM | > 100 µM | > 100 µM | > 100 µM | > 100 µM | > 100 µM | > 100 µM | > 100 µM | > 100 µM | > 100 µM | > 100 µM
5 | Cc1cccc(C)c1N=Nc1ccc(O)c(CN(C)C)c1 | 69.6 µM | > 100 µM | > 100 µM | > 100 µM | 46 µM | > 100 µM | > 100 µM | > 100 µM | 88.8 µM | > 100 µM | > 100 µM
6 | Cc1cc(C)nc(NS(=O)(=O)c2ccc(NC(=O)NC(F)(F)F)cc2)n1 | > 100 µM | > 100 µM | > 100 µM | > 100 µM | > 100 µM | > 100 µM | > 100 µM | > 100 µM | > 100 µM | > 100 µM | > 100 µM
7 | O=c1[nH]nc(Cc2ccccc2)n1/N=C/c1ccc([N+](=O)[O-])cc1 | > 100 µM | > 100 µM | > 100 µM | > 100 µM | > 100 µM | > 100 µM | > 100 µM |  | > 100 µM | > 100 µM | > 100 µM
8 | O=C1/C(=C/c2ccc(O)c(O)c2)CC/C1=C\c1ccc(O)c(O)c1 | > 100 µM | > 100 µM | 9.81 µM | > 80.1 µM | 19.3 µM | 38.2 µM | > 87.2 µM | 76.3 µM | > 72.7 µM | > 79.9 µM | > 100 µM
9 | COc1ccc(/C=C/C(=O)c2sc(-c3cccnc3)nc2C)cc1 | > 100 µM | > 100 µM | > 100 µM | > 100 µM | 90.8 µM | > 100 µM | > 100 µM | 26.2 µM | > 100 µM | > 100 µM | > 100 µM
10 | O=C1CC2CC(CC3(CO3)C2)C1F (stereo unspecified) | > 100 µM | > 100 µM | > 100 µM | > 100 µM | > 100 µM | > 100 µM | > 100 µM | > 100 µM | > 100 µM | > 100 µM | > 100 µM
11 | COc1ccc(/C=C2\CCC(CCN3CCOCC3)C2=O)cc1 (stereo unspecified) | > 100 µM | > 100 µM | > 100 µM | > 100 µM | > 100 µM | > 100 µM | > 100 µM | > 100 µM | > 100 µM | > 100 µM | > 100 µM
12 | Cc1ccsc1C(=S)Nc1ccc(Cl)c(/C=N/OC(C)C)c1 | > 100 µM | > 100 µM | > 100 µM | > 100 µM | 69.4 µM | > 100 µM | > 100 µM | 34.1 µM | > 100 µM | > 100 µM | > 100 µM
13 | COc1cc(CNc2c3ccccc3nc3ccccc23)cc(OC)c1OC | 14.3 µM | 14 µM | > 23.2 µM | 13.9 µM | 9.04 µM | 14.3 µM | 14 µM | > 27.3 µM | 5.66 µM | 12.7 µM | 14.6 µM
14 | CN(C)c1ccc(/C=C(\NC(=O)c2ccccc2)C(=O)Nc2cccc(C(=O)NCCCO)c2)cc1 | > 100 µM | > 100 µM | > 100 µM | > 100 µM | > 100 µM | > 100 µM | > 100 µM | > 100 µM | > 100 µM | > 100 µM | > 100 µM
15 | CN(C)CC1CCC/C(=C\c2ccccc2)C1=O (stereo unspecified) | 3.18 µM | 4.67 µM | > 100 µM | 26.7 µM | 7.38 µM | 6.9 µM | 14.7 µM |  | 18.9 µM | 38.2 µM | 29 µM
16 | Cc1cc(S(=O)(=O)NC(=NCCc2ccccc2)NN)c(S)cc1Cl | > 100 µM | 37.9 µM | 90.1 µM | 69.7 µM | 64.7 µM | > 100 µM | 35.2 µM | > 100 µM | > 100 µM | > 100 µM | 36.8 µM

Row | Structure (SMILES) | TGI (HT29 colon) | TGI (HCT-15 colon) | TGI (CCRF-CEM leukemia) | TGI (SNB-75 CNS) | TGI (RXF 393 renal) | TGI (786-0 renal) | TGI (OVCAR-8 ovarian) | TGI (RPMI-8226 leukemia) | TGI (SK-MEL-2 melanoma) | TGI (A549 NSCLC) | TGI (OVCAR-5 ovarian)
17 | Cc1cn(C2CCN(CC3COC(C)(C)O3)O2)c(=O)[nH]c1=O (stereo unspecified) | > 100 µM | > 100 µM | > 100 µM | > 100 µM | > 100 µM | > 100 µM | > 100 µM | > 100 µM | > 100 µM | > 100 µM | > 100 µM
18 | O=C(Cc1nc2ccc([N+](=O)[O-])cc2[nH]c1=O)C(=O)Nc1ccccc1[N+](=O)[O-] | > 100 µM | > 100 µM | > 100 µM | > 100 µM | > 100 µM | > 100 µM |  |  | > 100 µM | > 100 µM | > 100 µM
19 | CC(=O)Nc1cc2nc3n(c2cc1C)CCC3OC(C)=O (stereo unspecified) | > 100 µM | > 100 µM | > 100 µM | > 100 µM | > 100 µM | > 100 µM | > 100 µM | > 100 µM | > 100 µM | > 100 µM | > 100 µM
20 | O=C(Nc1cccc(C(=O)NCCCO)c1)/C(=C/c1ccccc1)NC(=O)c1ccccc1 | > 100 µM | > 100 µM | > 100 µM | > 100 µM | > 100 µM | > 100 µM | > 100 µM | > 100 µM | > 100 µM | > 100 µM | > 100 µM
21 | C=CC1(c2ccc3ccccc3c2)OCC(CC)O1 (stereo unspecified) | 91.2 µM | > 100 µM | 73.7 µM | > 100 µM | > 100 µM | > 100 µM | > 100 µM | > 100 µM | 43.9 µM | > 100 µM | > 100 µM
22 | CCCC(=O)OC[n+]1ccc(-c2c(COC(=O)NC(C)C)c(COC(=O)NC(C)C)c3n2CCC3)cc1 | > 100 µM | > 100 µM | > 100 µM | > 100 µM | > 100 µM | > 100 µM | > 100 µM | > 100 µM | > 100 µM | > 100 µM | > 100 µM
23 | O=C(CN=C(CN(c1ccccc1)c1ccccc1)Oc1ccc(Cl)cc1Cl)n1ccnc1 | > 100 µM | > 100 µM | > 100 µM | > 100 µM | > 100 µM | > 100 µM | > 100 µM | > 100 µM | > 100 µM | > 100 µM | > 100 µM
24 | COc1cc(CNc2cnc3ccc(N)cc3n2)cc(OC)c1OC | > 100 µM | > 100 µM | > 100 µM | > 100 µM | > 100 µM | > 100 µM | > 100 µM | > 100 µM | > 100 µM | > 100 µM | > 100 µM
25 | CC(C)Cn1cnc2c(Cl)nc3ccccc3c21 | > 100 µM | > 100 µM | > 100 µM | 88 µM | > 100 µM | > 100 µM | > 100 µM | > 100 µM | > 100 µM | > 100 µM | > 100 µM
26 | Cn1cc(-c2nnc(-c3ccc(Cl)cc3)[nH]c2=O)c2ccccc21 | > 24.6 µM | > 100 µM | > 22.7 µM | 35.1 µM | > 22.1 µM | > 44.6 µM | > 100 µM | 44.7 µM | > 37.3 µM | > 100 µM | > 100 µM
27 | CCCCCCCCCCOCCOCCOCCOCCCCC(O)CCCCCCCC1=C[C@H](C)OC1=O (stereo partly specified) | 24.4 µM | 23.9 µM | 51.1 µM | 24.7 µM | 23.5 µM | 45.5 µM | 33.6 µM | 24 µM | 25 µM | 29.9 µM | 30.6 µM
28 | CN(C)C(=NC#N)N(Cc1ccccc1)Cc1ccccc1 | > 100 µM | 30.1 µM | > 100 µM | > 100 µM | > 100 µM | > 100 µM | > 100 µM | > 100 µM | > 100 µM | > 100 µM | > 100 µM
29 | CC(C(=O)n1ccnc1)N1c2ccccc2Sc2ccccc21 (stereo unspecified) | > 100 µM | > 100 µM | > 100 µM | > 100 µM | > 100 µM | > 100 µM | > 100 µM | > 100 µM | > 100 µM | > 100 µM | > 100 µM
30 | NC(=O)Cn1c(=O)oc2cc(C(=O)CN3CCOCC3)ccc21 | > 100 µM |  | > 100 µM | > 100 µM | > 100 µM | > 100 µM | > 100 µM | > 100 µM | > 100 µM |  | > 100 µM
31 | COC(=O)C(c1ccc(OC)cc1)N1C(=O)[C@@H](NC(=O)c2ccccc2)[C@H]1[C@@H](C)O (stereo partly specified) | > 100 µM | > 100 µM | > 100 µM | > 100 µM | > 100 µM | > 100 µM | > 100 µM |  | > 100 µM | > 100 µM | 
